Measured values from patent US8022053B2, “Oral solid dosage forms containing a low dose of estradiol” (Bayer Schering Pharma Aktiengesellschaft, priority 2004, dated 2011).
Marks after values point to notes of the source that are not given here.

Assays:
[1] = daily oral administration of 1 to 3 mg of estradiol; cited from earlier work
[2] = In vitro dissolution of micronised estradiol and estradiol/polyvinylpyrrolidone powder mixtures (USP apparatus 2, paddle); assay type: physicochemical; conditions: 900 ml purified water, 37° C., 50 rpm, powder corresponding to 100 μg estradiol hemihydrate
Description: The dissolution characteristics of micronised estradiol and mixtures of micronised estradiol and polyvinylpyrrolidone, respectively, were investigated in an in vitro dissolution test system. The dissolution tester was a USP apparatus 2 (paddle system) (See <711> of USP 27) using 900 ml of purified water temperated at 37° C. as the dissolution media and a rotation speed of 50 rpm. The estradiol and the mixtures in powdery form were placed into the dissolution vessels in an amount corresponding to 100 μg of micronised estradiol hemihydrate.

[3] = Bioavailability study, serum levels of estradiol after a single oral tablet; assay type: in vivo, healthy postmenopausal women; conditions: fasted, for an extended period of time
Description: A bioavailability study was conducted in order to determine the serum levels of estradiol after single administration of a tablet formulation identical to the one described in Example 2 containing 190 μg and 100 μg of micronised estradiol hemihydrate, respectively. The study design was open labelled, 3 periods, 3 treatments, cross-over design with a single administration of each treatment and two weeks' washout between each period. The study population were 24 healthy postmenopausal women, age 55-75. Fasted condition was held.
The full-drawn line refers to the mean serum levels of estradiol achieved by administering a single dose of 190 μg to the study population, and the dotted line refers to the mean serum levels of estradiol achieved by administering a single dose of 100 μg to the study population. The mean serum level of endogenous estradiol was 3-3.5 pg/ml.

| Amount of estradiol (μg) dissolved after 5 min ([2]; 5 min) | Amount of estradiol (μg) dissolved after 10 min ([2]; 10 min) | Amount of estradiol (μg) dissolved after 20 min ([2]; 20 min) | Amount of estradiol (μg) dissolved after 30 min ([2]; 30 min) | Amount of estradiol (μg) dissolved after 60 min ([2]; 60 min) [µg] | Mean serum levels of estradiol ([3]; Example 2 tablet with 100 μg (printed 100 pg)) [pg/mL] | Mean serum levels of estradiol ([3]; Example 2 tablet with 190 μg) [pg/mL] | SMILES | Bioavailability [1] |
| --- | --- | --- | --- | --- | --- | --- | --- | --- |
|  |  |  |  |  |  |  | C[C@]12CC[C@@H]3c4ccc(O)cc4CC[C@H]3[C@@H]1CC[C@@H]2O [estradiol] | 3-5% |
| <3* μg | <3* μg | <3* μg | <3* μg | <3 | 5 to 20 | 5 to 20 | C[C@]12CC[C@@H]3c4ccc(O)cc4CC[C@H]3[C@@H]1CC[C@@H]2O [micronised estradiol hemihydrate, estradiol hemihydrate] |  |
